One assay addresses MCT4 (Homo sapiens (Human), UniProt O15427). Kind of assay: MCT4-mediated lactate transport in MDA-MB-231 breast cancer cells. The conditions noted are these: MDA-MB-231 cells, native MCT4; 50 mM L-lactate. In kind it is cell-based. The protocol: (§1) 10 μL of a 30 mM DMSO stock of BCECF-AM ester (Life Technologies) is added and the cells are incubated at 37° C. for 5 min. The cells are pelleted (300 g, 5 min), washed once with 1 mL Tyrode's Solution, pH 7.4, re-pelleted (300 g, 5 min), and resuspended in 1 mL Tyrode's Solution, pH 7.4.
(§2) 2.5 μL BCECF-loaded cells, along with either 10 μL DMSO or 100×compound in DMSO, are added to 937.5 μL of Tyrode's Solution in a quartz 1.0 mL cuvette (PerkinElmer, B0631116). […] After establishing baseline BCECF fluorescence (around 10-20 s), 50 μL of 1 M sodium L-lactate (Sigma-Aldrich) is added to the cuvette (final concentration: 50 mM) and rapidly mixed. The time-dependent decrease in BCECF fluorescence (490/440 ratio) may be fit to an exponential decay curve (Prism GraphPad) to determine the rate of lactate transport.
Preparation of BCECF-loaded cells and lactate transport activity may be determined as described for Assay 1.

A further assay deals with MCT1 (Homo sapiens (Human), UniProt P53985). Kind of assay: MCT1-mediated lactate transport in BT20 breast cancer cells. The class given is cell-based. The conditions noted are these: native MCT1, 10 mM L-lactate, Table 3. The protocol: as §1, §2
Sequence of MCT1 (P53985 whole entry): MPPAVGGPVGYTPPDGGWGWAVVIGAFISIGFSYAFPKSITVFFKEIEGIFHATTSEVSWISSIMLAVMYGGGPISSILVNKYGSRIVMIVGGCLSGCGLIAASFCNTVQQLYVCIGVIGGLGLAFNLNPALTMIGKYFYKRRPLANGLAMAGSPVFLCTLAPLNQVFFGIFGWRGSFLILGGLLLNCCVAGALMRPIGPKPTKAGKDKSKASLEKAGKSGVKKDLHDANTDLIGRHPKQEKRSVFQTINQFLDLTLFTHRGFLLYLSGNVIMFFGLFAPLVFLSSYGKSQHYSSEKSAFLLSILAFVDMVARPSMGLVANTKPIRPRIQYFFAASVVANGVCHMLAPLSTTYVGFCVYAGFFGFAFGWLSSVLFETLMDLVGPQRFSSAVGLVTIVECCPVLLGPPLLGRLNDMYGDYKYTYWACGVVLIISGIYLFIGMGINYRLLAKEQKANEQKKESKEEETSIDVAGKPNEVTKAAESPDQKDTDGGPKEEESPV
Sequence of MCT1 (P35613 140-385 partner): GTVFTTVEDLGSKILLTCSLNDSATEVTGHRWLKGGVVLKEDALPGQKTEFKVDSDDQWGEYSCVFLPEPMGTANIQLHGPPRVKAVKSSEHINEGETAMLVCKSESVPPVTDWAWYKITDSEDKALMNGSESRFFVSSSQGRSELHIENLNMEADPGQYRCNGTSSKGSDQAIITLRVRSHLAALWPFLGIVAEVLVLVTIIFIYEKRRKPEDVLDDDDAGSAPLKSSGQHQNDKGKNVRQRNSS
Assay 4: MCT1-Mediated Lactate Transport in BT20 Breast Cancer Cells.
Preparation of BCECF loaded cells are as described for Assay 1. Lactate transport assay is as described for Assay 1, except 10 mM L-lactate (rather than 50 mM) is added.

Sequence of MCT4 (O15427 whole entry, looked up): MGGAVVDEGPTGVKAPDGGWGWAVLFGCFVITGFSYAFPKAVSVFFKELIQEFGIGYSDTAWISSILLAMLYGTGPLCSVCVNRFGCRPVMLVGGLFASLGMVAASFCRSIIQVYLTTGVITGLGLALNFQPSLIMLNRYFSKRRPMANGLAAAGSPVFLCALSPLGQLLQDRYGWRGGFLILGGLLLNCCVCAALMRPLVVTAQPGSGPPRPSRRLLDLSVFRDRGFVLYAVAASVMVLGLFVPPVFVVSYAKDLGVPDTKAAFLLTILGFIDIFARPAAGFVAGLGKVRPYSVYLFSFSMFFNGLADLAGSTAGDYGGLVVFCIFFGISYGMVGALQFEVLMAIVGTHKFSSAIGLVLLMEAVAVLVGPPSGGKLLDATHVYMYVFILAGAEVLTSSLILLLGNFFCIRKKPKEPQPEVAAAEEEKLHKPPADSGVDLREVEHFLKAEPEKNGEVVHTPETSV
Sequence of MCT4 (P35613 whole entry partner, looked up): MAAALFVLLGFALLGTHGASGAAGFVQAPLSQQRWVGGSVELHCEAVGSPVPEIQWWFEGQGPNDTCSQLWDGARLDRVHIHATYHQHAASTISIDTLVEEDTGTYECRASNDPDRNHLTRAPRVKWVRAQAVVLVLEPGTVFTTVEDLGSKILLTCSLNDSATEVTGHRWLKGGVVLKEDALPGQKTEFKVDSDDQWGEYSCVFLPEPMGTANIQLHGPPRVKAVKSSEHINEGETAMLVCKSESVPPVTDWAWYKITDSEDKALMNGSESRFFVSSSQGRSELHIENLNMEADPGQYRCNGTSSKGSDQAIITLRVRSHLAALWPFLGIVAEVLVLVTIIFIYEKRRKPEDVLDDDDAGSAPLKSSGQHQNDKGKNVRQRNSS

In the case of `CC(C)(OCc1cc(-c2cccc(OCC3CCCC3)c2)n(Cc2ccccc2Cl)n1)C(=O)O` [Example 44, 2-[[1-[(2-Chlorophenyl)methyl]-5-[3-(cyclopentylmethoxy)phenyl]pyrazol-3-yl]methoxy]-2-methyl-propanoic acid], the IC50 at MCT4 was determined as 1.1 nM.
For `CC(C)(OCc1cc(-c2cncs2)n(Cc2ccccc2Cl)n1)C(=O)O` [Example 49, 2-([1-[(o-Chlorophenyl)methyl]-5-(1,3-thiazol-5-yl)-1H-pyrazol-3-yl]methoxy)-2-methylpropionic acid], the concentration for half-maximal inhibition (IC50) is 240 nM at MCT4 and 130000 nM on MCT1.
With `CC(C)(OCc1cc(-c2cccc(NS(C)(=O)=O)c2)n(Cc2ccccc2Cl)n1)C(=O)O` [Example 71, 2-([1-[(2-chlorophenyl)methyl]-5-(3-methanesulfonamidophenyl)-1H-pyrazol-3-yl]methoxy)-2-methylpropanoic Acid], the IC50 against MCT4 was 34000 nM; on MCT1 it was 64000 nM.
Regarding `COc1cccc(-c2cc(COC(C)(C)C(=O)O)nn2Cc2ccccc2)c1` [Example 53, 2-[[1-benzyl-5-(3-methoxyphenyl)-1H-pyrazol-3-yl]methoxy]-2-methylpropanoic acid], the results for the IC50 against MCT4 and at MCT1 were 160 nM and above 100000 nM, respectively.
The like results for `CC(C)(OCc1cc(-c2cccc(OC(F)(F)F)c2)n(Cc2ccccc2Cl)n1)C(=O)O` [Example 34, 2-[[1-[(2-Chlorophenyl)methyl]-5-[3-(trifluoromethoxy)phenyl]pyrazol-3-yl]methoxy]-2-methyl-propanoic acid] were, in that order, 9.3 nM and above 11000 nM.
Turning to `COc1cccc(-c2cc(COC(C)(C)C(=O)O)nn2-c2ccccn2)c1` [Example 56, 2-[[5-(3-methoxyphenyl)-1-(pyridin-2-yl)-1H-pyrazol-3-yl]methoxy]-2-methylpropanoic acid], the IC50 on MCT1 was above 133000 nM.
Regarding `COCc1cccc(-c2cc(COC(C)(C)C(=O)O)nn2Cc2ccccc2Cl)c1` [Example 52, 2-([1-[(2-chlorophenyl)methyl]-5-[3-(methoxymethyl)phenyl]-1H-pyrazol-3-yl]methoxy)-2-methylpropanoic acid], the IC50 at MCT4 came to 190 nM; against MCT1, 84000 nM.
`CC(C)(OCc1cc(-c2cccc(CN3CCOCC3)c2)n(Cc2ccccc2Cl)n1)C(=O)O` [Example 40, 2-[[1-[(2-Chlorophenyl)methyl]-5-[3-(morpholinomethyl)phenyl]pyrazol-3-yl]methoxy]-2-methyl-propanoic acid]: the IC50 is 520 nM at MCT4 and above 100000 nM at MCT1.
In the case of `CC(C)(OCc1cc(-c2cccc(OCC3COC3)c2)n(Cc2ccccc2Cl)n1)C(=O)O` [Example 80, 2-[[1-[(2-Chlorophenyl)methyl]-5-[3-(oxetan-3-ylmethoxy)phenyl]pyrazol-3-yl]methoxy]-2-methyl-propanoic Acid], the IC50 on MCT4 was 81 nM.
Consider `CC(C)(OCc1cc(-c2cccc(S(C)(=O)=O)c2)n(Cc2ccccc2Cl)n1)C(=O)O` [Example 70, 2-([1-[(2-chlorophenyl)methyl]-5-(3-methanesulfonylphenyl)-1H-pyrazol-3-yl]methoxy)-2-methylpropanoic Acid], for which the IC50 against MCT4 is 9300 nM; at MCT1, above 100000 nM.
Take `COc1cccc(-c2cc(COC(C)(C)C(=O)O)nn2-c2cccc(Cl)c2)c1` [Example 58, 2-[[1-(3-chlorophenyl)-5-(3-methoxyphenyl)-1H-pyrazol-3-yl]methoxy]-2-methylpropanoic acid]: the IC50 on MCT1 turned out to be 78000 nM.
For the compound `CC(C)CNc1cccc(-c2cc(COC(C)(C)C(=O)O)nn2Cc2ccccc2Cl)c1` [Example 73, 2-([1-[(2-chlorophenyl)methyl]-5-[3-[(2-methylpropyl)amino]phenyl]-1H-pyrazol-3-yl]methoxy)-2-methylpropanoic Acid], the half-maximal inhibitory concentration (IC50) was 21 nM against MCT4 and above 11000 nM against MCT1.
The like results for `CC(C)(OCc1cc(-c2cccs2)n(Cc2ccccc2Cl)n1)C(=O)O` [Example 25, 2-[[1-[(2-Chlorophenyl)methyl]-5-(2-thienyl)pyrazol-3-yl]methoxy]-2-methyl-propanoic acid] were, in that order, 33 nM and 77000 nM.
For the compound `CC(C)(OCc1cc(Oc2ccccc2)n(Cc2ccccc2Cl)n1)C(=O)O` [Example 76, 2-([1-[(2-Chlorophenyl)methyl]-5-phenoxy-1H-pyrazol-3-yl]methoxy)-2-methylpropanoic Acid], the IC50 against MCT4 came to 400 nM; against MCT1 it was 38000 nM.
Regarding `CCC(CC)(OCc1cc(-c2cccc(OC)c2)n(Cc2ccccc2Cl)n1)C(=O)O` [Example 67], the IC50 turned out to be 11 nM at MCT4 and 17000 nM at MCT1.
`CC(C)(OCc1cc(Cc2ccccc2)n(Cc2ccccc2Cl)n1)C(=O)O` [Example 77, 2-([5-Benzyl-1-[(2-chlorophenyl)methyl]-1H-pyrazol-3-yl]methoxy)-2-methylpropanoic Acid] yielded an IC50 against MCT1 of 9000 nM.
`CC(C)(OCc1cc(-c2cccc(O)c2)n(Cc2ccccc2Cl)n1)C(=O)O` [Example 79, 2-[[1-[(2-Chlorophenyl)methyl]-5-(3-hydroxyphenyl)pyrazol-3-yl]methoxy]-2-methyl-propanoic Acid]: the IC50 against MCT4 worked out at 59 nM; against MCT1 it was 15000 nM.
Consider `CC(C)c1cccc(-c2cc(COC(C)(C)C(=O)O)nn2Cc2ccccc2Cl)c1` [Example 51, 2-([1-[(2-Chlorophenyl)methyl]-5-[3-(propan-2-yl)phenyl]-1H-pyrazol-3-yl]methoxy)-2-methylpropanoic Acid], for which the IC50 amounted to 15 nM against MCT4 and 6000 nM against MCT1.
For the compound `CC(C)COc1cccc(-c2cc(COC(C)(C)C(=O)O)nn2Cc2ccccc2)c1` [Example 60, 2-([1-Benzyl-5-[3-(2-methylpropoxy)phenyl]-1H-pyrazol-3-yl]methoxy)-2-methylpropanoic Acid], the IC50 against MCT4 is 13 nM; on MCT1 it was 44000 nM.
As for `COc1cccc(-c2cc(COC(C)(C)C(=O)NS(C)(=O)=O)nn2Cc2ccccc2Cl)c1` [Example 81, 2-[[1-[(2-chlorophenyl)methyl]-5-(3-methoxyphenyl)pyrazol-3-yl]methoxy]-2-methyl-N-methylsulfonyl-propanamide], the IC50 against MCT4 amounted to 6300 nM; at MCT1, 6600 nM.
Take `CC(C)C(=O)Nc1cccc(-c2cc(COC(C)(C)C(=O)O)nn2Cc2ccccc2Cl)c1` [Example 69, 2-([1-[(2-Chlorophenyl)methyl]-5-[3-(2-methylpropanamido)phenyl]-1H-pyrazol-3-yl]methoxy)-2-methylpropanoic Acid]: the IC50 is 5800 nM at MCT4 and above 100000 nM against MCT1.
The like results for `CC(C)Oc1cccc(-c2cc(COC(C)(C)C(=O)O)nn2Cc2ccccc2Br)c1` [Example 29, 2-[[1-[(2-Bromophenyl)methyl]-5-(3-isopropoxyphenyl)pyrazol-3-yl]methoxy]-2-methyl-propanoic acid] were, in that order, 3.7 nM and 16000 nM.
Take `COC(=O)C(C)(C)OCc1cc(-c2cccc(OC)c2)n(Cc2ccccc2Cl)n1` [Example 82, Methyl 2-[[1-[(2-chlorophenyl)methyl]-5-(3-methoxyphenyl)pyrazol-3-yl]methoxy]-2-methyl-propanoate]: the IC50 on MCT4 stood at 460 nM; against MCT1 it was 16000 nM.
On to `CC(C)(OCc1cc(-c2cccc(OCC3CCOCC3)c2)n(Cc2ccccc2Cl)n1)C(=O)O` [Example 45, 2-[[1-[(2-Chlorophenyl)methyl]-5-[3-(tetrahydropyran-4-ylmethoxy)phenyl]pyrazol-3-yl]methoxy]-2-methyl-propanoic acid], for which the results for the IC50 on MCT4 and against MCT1 were 19 nM and 12000 nM, respectively.
In the case of `COc1cccc(-c2cc(COC(C)(C)C(=O)O)nn2Cc2ccccc2C)c1` [Example 32, 2-[[5-(3-Methoxyphenyl)-1-(o-tolylmethyl)pyrazol-3-yl]methoxy]-2-methyl-propanoic acid], the figures for the IC50 on MCT4 and against MCT1 were 79 nM and 83000 nM, respectively.
`CNc1cccc(-c2cc(COC(C)(C)C(=O)O)nn2Cc2ccccc2Cl)c1` [Example 72, 2-([1-[(2-Chlorophenyl)methyl]-5-[3-(methylamino)phenyl]-1H-pyrazol-3-yl]methoxy)-2-methylpropanoic Acid]: the IC50 against MCT4 was determined as 220 nM; on MCT1, 45000 nM.
For the compound `COc1cccc(-c2cc(COC(C)(C)C(=O)O)nn2Cc2ccccc2C(C)C)c1` [Example 31, 2-[[1-[(2-Isopropylphenyl)methyl]-5-(3-methoxyphenyl)pyrazol-3-yl]methoxy]-2-methyl-propanoic acid], the results for the IC50 on MCT4 and against MCT1 were 53 nM and 42000 nM, respectively.
The compound `COc1cccc(-c2cc(COC(C)(C)C(=O)O)nn2-c2ccc(Cl)cc2)c1` [Example 59, 2-[[1-(4-chlorophenyl)-5-(3-methoxyphenyl)-1H-pyrazol-3-yl]methoxy]-2-methylpropanoic acid] had an IC50 against MCT1 of 81000 nM.
At MCT4, `CC(C)(OCc1cc(-c2cccc(OCC3CCC3)c2)n(Cc2ccccc2Cl)n1)C(=O)O` [Example 42, 2-[[1-[(2-Chlorophenyl)methyl]-5-[3-(cyclobutylmethoxy)phenyl]pyrazol-3-yl]methoxy]-2-methyl-propanoic acid] returned an IC50 of 2.6 nM.
